Assay: xn = mol fraction of the nth substance listed
Conditions: 100 kPa

CCCC[n+]1ccn(C)c1.O=S(=O)([N-]S(=O)(=O)C(F)(F)F)C(F)(F)F + CCO
viscosity [mPa·s]
Conditions	x1 = 0.2129	x1 = 0.2688	x1 = 0.4215	x1 = 0.4606	x1 = 0.5784	x1 = 0.6609	x1 = 0.747	x1 = 0.8264	x1 = 1
293 K	5.22	6.47	12.72	13.9	–	24.9	32.4	40.9	63.5
293.3 K	5.19	6.42	12.59	–	20.5	24.6	–	40.4	62.7
293.61 K	5.15	–	12.47	13.7	20.4	24.4	31.8	39.9	–
293.91 K	–	6.33	12.34	–	20.2	–	31.4	39.4	61
294.21 K	5.08	6.28	–	13.42	20	–	31.1	38.9	–
294.52 K	5.05	6.24	12.1	13.3	19.8	23.7	–	–	–
294.82 K	5.01	6.19	–	13.18	19.6	23.5	30.5	38	–
295.12 K	4.98	6.15	–	13.06	19.4	23.3	–	37.6	57.8
295.42 K	–	–	11.75	–	19.2	23.1	29.9	37.1	57
295.73 K	4.91	6.06	11.64	12.82	19	22.8	29.5	–	56.3
296.03 K	4.87	6.02	11.52	12.7	18.9	22.6	29.2	36.2	55.6
296.33 K	4.84	5.98	11.41	12.59	18.7	22.4	28.9	35.8	54.8
296.64 K	4.81	–	11.31	–	18.5	22.2	28.6	35.4	–
296.94 K	4.77	5.89	11.2	–	18.34	22	–	35	53.4
297.24 K	4.74	–	–	12.25	–	21.8	–	34.5	52.7
297.55 K	4.71	5.81	10.99	12.14	18	21.6	27.8	–	52.1
297.85 K	4.68	5.77	10.88	12.04	17.83	21.4	27.5	33.7	–
298.15 K	–	–	10.78	11.93	17.67	21.2	27.2	33.3	50.8
298.45 K	4.61	5.69	10.68	11.82	17.5	–	–	33	50.1
298.76 K	4.58	5.65	–	11.72	17.34	20.8	26.7	–	49.5
299.06 K	–	5.61	10.49	11.62	–	–	26.4	32.2	48.9
299.36 K	4.52	5.57	10.39	11.52	17.03	20.4	26.2	31.8	48.3
299.67 K	4.48	5.53	10.29	–	16.87	20.2	25.9	31.5	47.7
299.97 K	–	5.49	10.2	11.31	–	20	25.6	31.1	47.1
300.27 K	–	5.45	–	11.22	16.56	19.9	–	–	46.5
300.58 K	4.39	5.41	–	11.12	16.41	19.7	25.1	30.4	45.9
300.88 K	4.36	–	–	11.02	16.26	19.5	24.9	30.1	45.4
301.18 K	4.33	–	9.84	10.93	16.11	19.3	24.6	29.7	44.8
301.48 K	–	5.3	9.75	10.83	15.97	19.1	24.4	29.4	44.3
301.79 K	4.27	5.26	9.66	10.74	15.82	19	24.2	29	43.7
302.09 K	4.24	5.22	9.57	10.65	15.68	18.8	23.9	28.7	43.2
302.39 K	4.21	5.19	9.49	–	15.54	18.6	23.7	28.4	42.7
302.7 K	–	–	9.41	10.47	15.4	18.5	–	–	42.2
303 K	4.15	5.11	9.32	–	15.26	18.3	–	27.8	41.7
303.3 K	4.13	–	9.24	10.29	15.12	18.1	23	27.4	41.2
303.61 K	4.1	5.04	9.16	10.2	14.99	18	22.8	27.1	40.7
303.91 K	4.07	5	9.08	10.12	14.85	17.8	22.6	–	40.2
304.21 K	4.04	4.97	9	10.03	14.72	17.6	22.3	26.5	39.8
304.52 K	4.01	4.93	8.92	–	–	17.5	22.1	26.2	–
304.82 K	3.98	–	–	9.87	14.46	17.3	–	26	38.9
305.12 K	3.96	4.86	8.77	9.78	14.33	17.1	21.7	25.7	–
305.42 K	3.93	4.83	8.7	9.7	14.2	16.99	21.5	25.4	38
305.73 K	3.9	4.8	8.62	9.62	14.07	16.84	21.3	25.1	37.5
306.03 K	3.88	–	8.55	9.54	13.95	16.69	21.1	24.8	37.1
306.33 K	3.85	4.73	8.48	9.46	–	16.54	20.9	–	36.7
306.64 K	3.82	–	8.41	9.39	13.7	–	20.7	24.3	36.2
306.94 K	–	4.66	8.34	9.31	13.58	16.24	20.5	24	35.8
307.24 K	3.77	4.63	–	–	13.46	16.09	20.3	23.8	35.4
307.55 K	3.74	4.6	8.2	9.16	13.34	15.95	20.1	23.5	35
307.85 K	3.72	4.56	8.13	9.08	13.23	15.81	19.9	23.3	34.7
308.15 K	3.69	–	8.06	9.01	13.11	–	19.7	23	34.3
308.45 K	–	4.5	7.99	8.94	13	–	–	22.8	33.9
308.76 K	3.64	4.47	–	8.86	–	15.39	–	22.5	33.5
309.06 K	3.61	–	7.86	8.79	12.77	15.25	19.2	22.3	33.1
309.36 K	3.59	4.4	7.8	8.72	12.66	15.11	19	22.1	32.8
309.67 K	3.56	4.37	–	8.65	12.55	14.98	18.8	21.8	–
309.97 K	3.54	4.34	7.67	–	12.44	14.85	–	21.6	32.1
310.27 K	3.52	4.31	7.61	8.51	12.33	14.71	18.4	21.4	31.7
310.58 K	3.49	4.28	7.55	8.44	12.22	14.58	–	21.1	31.4
310.88 K	–	4.25	7.49	8.38	–	14.45	18.09	–	31
311.18 K	3.44	4.22	7.43	–	12.01	14.33	17.92	20.7	30.7
311.48 K	–	4.19	7.37	8.24	11.91	14.2	17.75	20.5	30.4
311.79 K	3.39	4.16	7.31	–	–	14.07	–	–	30.1
312.09 K	3.37	–	7.25	8.11	11.7	–	17.42	20.1	29.7
312.39 K	3.35	–	7.19	–	11.6	13.83	17.26	19.8	29.4
312.7 K	3.32	–	7.13	7.98	11.5	13.7	17.1	19.6	29.1
313 K	3.3	4.04	7.08	7.92	11.4	13.58	–	19.4	–
313.3 K	3.28	4.02	–	7.86	11.3	13.46	16.78	19.2	28.5
313.61 K	3.26	3.99	6.96	7.8	11.21	13.34	16.62	–	28.2
313.91 K	3.23	3.96	6.91	7.74	11.11	–	–	18.8	27.9
314.21 K	–	–	6.86	7.68	11.02	13.11	–	18.6	27.6
314.52 K	3.19	3.9	6.8	7.62	–	13	–	18.5	27.3
314.82 K	3.17	3.88	6.75	7.56	10.83	–	16.02	18.3	27.1
315.12 K	3.14	3.85	6.7	7.5	10.74	12.77	15.87	–	26.8
315.42 K	3.12	–	6.64	7.44	10.64	–	15.72	17.9	26.5
315.73 K	3.1	3.79	–	7.38	–	–	15.58	17.7	26.2
316.03 K	3.08	–	6.54	7.33	10.46	12.44	15.43	17.5	26
316.33 K	3.06	3.74	6.49	–	10.38	12.33	15.29	17.4	25.7
316.64 K	3.03	3.71	–	7.21	–	12.22	15.15	17.2	–
316.94 K	3.01	3.69	6.39	7.16	10.2	–	15.01	–	25.2
317.24 K	2.99	3.66	6.34	7.1	10.11	–	14.88	16.9	24.9
317.55 K	2.97	–	–	7.05	–	11.91	14.74	16.7	24.7
317.85 K	2.95	3.61	–	6.99	9.94	–	14.6	16.5	–
318.15 K	2.93	–	6.2	–	9.86	11.7	14.47	16.3	24.2
318.45 K	2.91	3.56	6.15	6.89	9.78	11.6	14.34	–	23.9
318.76 K	2.89	3.53	6.1	–	–	11.5	14.21	16.02	–
319.06 K	–	3.51	6.06	6.78	9.61	11.4	14.08	15.86	23.5
319.36 K	2.85	3.48	6.01	6.73	9.53	11.3	13.95	15.71	23.2
319.67 K	2.83	3.46	–	6.68	9.45	11.2	–	15.55	23
319.97 K	2.81	3.43	5.92	–	–	11.1	13.7	15.4	22.8
320.27 K	2.79	3.41	5.88	6.58	–	11.01	–	–	22.6
320.58 K	2.77	3.38	–	6.53	9.22	10.91	13.45	15.09	22.3
320.88 K	2.75	3.36	5.79	6.48	9.14	10.82	13.33	14.95	22.1
321.18 K	2.73	3.34	5.74	–	9.06	–	13.21	14.8	21.9
321.48 K	2.71	3.31	5.7	6.38	8.99	10.63	–	14.66	21.7
321.79 K	2.69	–	5.66	–	8.91	10.54	12.97	14.51	21.5
322.09 K	–	3.27	–	6.29	8.84	10.45	12.86	14.37	–
322.39 K	2.65	3.24	5.58	6.24	8.76	10.36	–	14.23	21.1
322.7 K	2.63	3.22	5.53	6.19	8.69	10.27	–	14.09	20.9
323 K	2.62	3.2	5.49	–	8.62	10.18	12.51	13.96	20.7

Source: a compilation of properties of binary mixtures (doi:10.1016/j.molliq.2018.02.064)
